Experimental data: ChEMBL document CHEMBL5212743, “Selectivity Literature for EUbOPEN Chemogenomics Library wave 3” (2023)
Substitutions are numbered along the chain they refer to.

Key:
[1] = system: Receptor-type tyrosine-protein kinase FLT3 (Homo sapiens), P36888 [UNDEFINED MUTATION]; test: (§1) Selectivity interaction (KinomeScan (DiscoverX)) EUB0000138c FLT3; details: at 100 nM
[2] = system: Receptor-type tyrosine-protein kinase FLT3 (Homo sapiens), P36888 [D835H]; test: as §1; details: at 100 nM
[3] = system: T1, Receptor-type tyrosine-protein kinase FLT3 (Homo sapiens), P36888 [D835V]; test: as §1; details: at 100 nM
T1 sequence (whole entry): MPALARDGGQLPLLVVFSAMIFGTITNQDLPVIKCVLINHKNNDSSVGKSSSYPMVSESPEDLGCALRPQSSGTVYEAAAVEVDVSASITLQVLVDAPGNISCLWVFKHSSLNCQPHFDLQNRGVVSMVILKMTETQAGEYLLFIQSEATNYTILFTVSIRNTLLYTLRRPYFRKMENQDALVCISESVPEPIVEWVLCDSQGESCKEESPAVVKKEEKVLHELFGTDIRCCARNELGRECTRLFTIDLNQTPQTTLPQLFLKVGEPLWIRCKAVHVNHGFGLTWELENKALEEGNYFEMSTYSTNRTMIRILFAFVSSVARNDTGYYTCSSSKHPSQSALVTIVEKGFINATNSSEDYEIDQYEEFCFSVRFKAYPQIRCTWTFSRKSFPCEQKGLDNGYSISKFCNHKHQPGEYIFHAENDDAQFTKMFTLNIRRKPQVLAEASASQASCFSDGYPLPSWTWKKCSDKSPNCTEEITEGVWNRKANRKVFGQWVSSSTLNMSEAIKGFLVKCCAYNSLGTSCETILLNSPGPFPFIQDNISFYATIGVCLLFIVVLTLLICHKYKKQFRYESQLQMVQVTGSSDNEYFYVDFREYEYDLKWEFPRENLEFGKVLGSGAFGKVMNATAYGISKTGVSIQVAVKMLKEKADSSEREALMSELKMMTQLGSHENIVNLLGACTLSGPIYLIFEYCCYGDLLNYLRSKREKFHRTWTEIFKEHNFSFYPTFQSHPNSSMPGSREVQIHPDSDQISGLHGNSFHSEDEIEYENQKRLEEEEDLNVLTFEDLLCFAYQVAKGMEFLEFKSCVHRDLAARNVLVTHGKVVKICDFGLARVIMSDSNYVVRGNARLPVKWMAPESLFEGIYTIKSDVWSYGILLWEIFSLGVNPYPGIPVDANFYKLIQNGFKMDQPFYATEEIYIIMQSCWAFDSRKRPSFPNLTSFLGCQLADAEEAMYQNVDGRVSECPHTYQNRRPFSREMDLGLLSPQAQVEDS

[4] = system: T2, Receptor-type tyrosine-protein kinase FLT3 (Homo sapiens), P36888 [N841I]; test: as §1; details: at 100 nM
T2 sequence (whole entry): T1 sequence (whole entry) with V835D, N841I

[5] = biological target: T3, Alpha-1A adrenergic receptor (Homo sapiens) (UniProt P35348); test: Selectivity interaction (SafetyScreen44™ (Eurofins, panel of GPCRS, ion channels, transporters) ) EUB0000169b ADRA1A; details: at 10 µM
T3 sequence (whole entry): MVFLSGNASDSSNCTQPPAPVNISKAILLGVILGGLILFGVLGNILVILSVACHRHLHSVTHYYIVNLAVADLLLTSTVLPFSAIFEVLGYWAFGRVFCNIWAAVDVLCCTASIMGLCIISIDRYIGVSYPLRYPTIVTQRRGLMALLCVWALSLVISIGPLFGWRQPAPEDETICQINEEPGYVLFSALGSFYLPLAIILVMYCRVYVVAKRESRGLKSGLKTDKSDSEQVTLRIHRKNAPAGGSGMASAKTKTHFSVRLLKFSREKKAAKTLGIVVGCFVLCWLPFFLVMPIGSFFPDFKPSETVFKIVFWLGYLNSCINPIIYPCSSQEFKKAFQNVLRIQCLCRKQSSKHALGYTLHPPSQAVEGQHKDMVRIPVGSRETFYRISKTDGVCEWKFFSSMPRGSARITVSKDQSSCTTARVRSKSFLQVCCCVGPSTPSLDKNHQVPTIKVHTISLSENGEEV

[6] = biological target: Serine/threonine-protein kinase ULK1 (Homo sapiens) (UniProt O75385); test: Selectivity interaction (KinomeScan (DiscoverX)) EUB0000702a ULK1; details: at 1 µM
Chain of Serine/threonine-protein kinase ULK1 (Homo sapiens) (O75385 whole entry): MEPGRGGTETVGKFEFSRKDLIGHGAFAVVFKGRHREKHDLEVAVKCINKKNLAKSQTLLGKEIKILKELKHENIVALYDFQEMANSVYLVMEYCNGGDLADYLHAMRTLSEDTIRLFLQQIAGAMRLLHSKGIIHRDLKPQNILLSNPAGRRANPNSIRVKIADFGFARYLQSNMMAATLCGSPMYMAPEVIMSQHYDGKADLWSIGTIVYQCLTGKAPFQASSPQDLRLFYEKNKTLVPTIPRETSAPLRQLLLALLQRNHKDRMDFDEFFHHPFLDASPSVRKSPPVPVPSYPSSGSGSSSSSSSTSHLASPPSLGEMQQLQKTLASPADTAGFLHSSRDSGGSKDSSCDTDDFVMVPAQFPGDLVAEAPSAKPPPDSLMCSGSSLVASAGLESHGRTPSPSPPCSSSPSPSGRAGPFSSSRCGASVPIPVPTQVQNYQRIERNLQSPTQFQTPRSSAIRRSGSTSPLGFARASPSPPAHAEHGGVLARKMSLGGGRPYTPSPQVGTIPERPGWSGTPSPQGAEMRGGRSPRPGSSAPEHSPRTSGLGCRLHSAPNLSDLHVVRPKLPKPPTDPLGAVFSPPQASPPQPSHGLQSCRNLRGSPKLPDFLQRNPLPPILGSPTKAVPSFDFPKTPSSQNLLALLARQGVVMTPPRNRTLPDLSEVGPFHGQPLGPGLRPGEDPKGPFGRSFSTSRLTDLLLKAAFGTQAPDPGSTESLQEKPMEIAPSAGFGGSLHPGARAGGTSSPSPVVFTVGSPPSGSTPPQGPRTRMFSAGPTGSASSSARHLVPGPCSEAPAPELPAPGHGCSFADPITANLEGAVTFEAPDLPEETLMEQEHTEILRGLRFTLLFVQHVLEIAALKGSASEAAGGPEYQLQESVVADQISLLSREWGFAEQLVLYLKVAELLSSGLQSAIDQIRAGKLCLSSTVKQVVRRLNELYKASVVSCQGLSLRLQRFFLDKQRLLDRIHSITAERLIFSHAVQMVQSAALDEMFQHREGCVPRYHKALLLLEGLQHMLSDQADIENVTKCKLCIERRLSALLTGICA

With `CNC(=O)c1ccc(Nc2ncc(C(F)(F)F)c(NCc3nccnc3N(C)S(C)(=O)=O)n2)cc1` [DEFACTINIB] the % of control [1] was 9%, the % of control [2] was 99.8% and the % of control [3] was 0.2%. It also gave a % of control [4] of 0%.

For `CC[C@@H]1C(=O)N(C)c2cnc(Nc3ccc(C(=O)NC4CCN(C)CC4)cc3OC)nc2N1C1CCCC1`, the % of control [5] was 13%.

Compound `CN(c1ccnc(CNc2nc(Nc3ccc4c(c3)CC(=O)N4)ncc2C(F)(F)F)n1)S(C)(=O)=O` [PF-00911705] has a % of control [6] of 1.2%.
